The results in this text go back to patent US20210277003A1, “OGA INHIBITOR COMPOUNDS” (Janssen Pharmaceutica NV, priority 2018, published 2021).

The test system of assay [1] is OGA in HEK293 cells inducible for P301L mutant human Tau (isoform 2N4R). Put plainly: OGA cellular assay: immunocytochemical detection of O-GlcNAcylated proteins (CTD110.6 antibody). In kind it is cell-based. To be noted: Homo sapiens, HEK293, 6 h, 6 hours incubation; for Emax: maximum = Thiamet G 200 uM; for EC50: read-out: Cellular hOGA, pEC50 (converted). In outline: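 Cells seeded 2 days ahead in low-glucose assay medium and exposed to compounds for 6 h at 0.2% DMSO, then PFA-fixed and immunostained. Signal is 488 nm intensity from imaging (9 fields/well), with Hoechst nuclei counts as a toxicity check. IC50 from non-linear regression, with 200 uM Thiamet G per plate as maximum inhibition.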

For assay [2], the target named is T1, recombinant human Meningioma Expressed Antigen 5 (MGEA5), also referred to as O-GlcNAcase (OGA) (Homo sapiens, UniProt O60502).
T1 construct: Full length OGA enzyme was purchased at OnGene (cat #TP322411); purchased OnGene (so in the source)
T1 sequence (O60502 1-916): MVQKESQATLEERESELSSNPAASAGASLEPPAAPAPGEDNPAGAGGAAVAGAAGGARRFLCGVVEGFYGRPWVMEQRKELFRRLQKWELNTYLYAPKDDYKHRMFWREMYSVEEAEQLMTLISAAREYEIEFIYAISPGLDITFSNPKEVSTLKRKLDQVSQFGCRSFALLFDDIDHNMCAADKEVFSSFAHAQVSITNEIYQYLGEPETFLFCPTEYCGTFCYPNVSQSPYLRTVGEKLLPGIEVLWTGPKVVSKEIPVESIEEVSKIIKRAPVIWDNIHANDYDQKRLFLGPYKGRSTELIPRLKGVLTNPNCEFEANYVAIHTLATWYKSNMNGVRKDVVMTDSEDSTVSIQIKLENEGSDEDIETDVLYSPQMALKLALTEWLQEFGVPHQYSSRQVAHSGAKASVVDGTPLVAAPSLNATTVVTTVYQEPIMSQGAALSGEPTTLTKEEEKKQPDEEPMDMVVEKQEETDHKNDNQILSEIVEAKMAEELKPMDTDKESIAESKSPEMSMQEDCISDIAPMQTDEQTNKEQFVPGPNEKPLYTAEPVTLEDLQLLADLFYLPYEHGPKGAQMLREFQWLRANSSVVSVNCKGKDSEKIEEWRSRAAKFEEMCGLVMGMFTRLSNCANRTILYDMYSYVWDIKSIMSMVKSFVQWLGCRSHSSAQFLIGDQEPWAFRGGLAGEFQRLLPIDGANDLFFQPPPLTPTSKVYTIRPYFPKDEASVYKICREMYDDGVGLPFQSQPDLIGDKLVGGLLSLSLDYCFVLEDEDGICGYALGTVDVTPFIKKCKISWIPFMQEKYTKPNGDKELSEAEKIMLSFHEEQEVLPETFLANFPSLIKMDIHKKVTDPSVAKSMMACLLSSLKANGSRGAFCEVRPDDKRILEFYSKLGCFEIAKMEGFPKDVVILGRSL
Put plainly: OGA biochemical assay: inhibition of hydrolysis of fluorescein mono-ß-D-N-Acetyl-Glucosamine (FM-GlcNAc), fluorescence readout. To be noted: FM-GlcNAc substrate; for Emax: read-out: Enzymatic Emax (%); for IC50: read-out: Enzymatic hOGA, pIC50 (converted). In outline:
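Full-length recombinant human OGA (2 nM) was pre-incubated with compound for 60 min, then reacted with 100 uM FM-GlcNAc for 6 h at room temperature in 200 mM citrate/phosphate pH 7.2 with 0.005% Tween-20. Reactions were stopped with pH 11.0 carbonate and fluorescein read at 485/538 nm. IC50 and Hill coefficient came from curve fitting.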

Usually Emax stands for the maximal effect, on the per cent scale that the assay sets. Consider `Clc1cccc(Cl)c1Nc1nccc2c1ccn2Cc1ccon1` [Compound 172], for which, in assay [1], the Emax came to 80.8% and the EC50 was 70.8 nM. Further, in assay [2], the maximum response (Emax) was determined as 102% and the IC50 is 3.39 nM.
For `Cc1cc(Cl)cc(S(C)(=O)=O)c1Nc1nccc2c1ccn2CC1CC(F)(F)C1` [Compound 173] the same measures were 88.5%, 158 nM, 101% and 23.4 nM.
For `Cc1cccc(S(C)(=O)=O)c1Nc1nccc2c1ccn2CC1CC(F)(F)C1` [Compound 174] the same measures were 87%, 93.3 nM, 99.3% and 12.9 nM.
For `Cc1cc2c(c(C)c1Nc1nccc3c1ccn3CC1CC(F)(F)C1)OCCO2` [Compound 175] the same measures were 80.1%, 37.2 nM, 100% and 6.31 nM.
As to `Cc1cc(C(F)(F)F)cc(C)c1Nc1nccc2c1ccn2CC(F)(F)C(C)C` [Compound 176], in assay [1], the Emax amounted to 101% and the EC50 was 5.5 nM. Besides, in assay [2], the Emax was determined as 103% and the IC50 was 1.55 nM.
For `Cc1cc(-c2cnn(C)c2)cc(C)c1Nc1nccc2c1ccn2CC(F)(F)C(C)C` [Compound 178] the same measures were 103%, 2.95 nM, 101% and 1.12 nM.
For `Cc1cc(C)c(Nc2nccc3c2ccn3CC(F)(F)C(C)C)c(OC(F)F)n1` [Compound 179] the same measures were 80.9%, 20.4 nM, 102% and 2.04 nM.
For `Cc1cnc(-n2ccc3c(Nc4c(Cl)cc(F)cc4Cl)nccc32)o1` [Compound 183] the same measures were 13.9%, over 1000 nM, 95.3% and 501 nM.
In the case of `Cn1ccc(-n2ccc3c(Nc4c(Cl)cc(F)cc4Cl)nccc32)n1` [Compound 184], in assay [1], the Emax was 46.5% and the EC50 is 912 nM. Further, in assay [2], the Emax amounted to 101% and the IC50 was 79.4 nM.
For `Cc1cc(C(F)(F)F)nc(C)c1Nc1nccc2c1ccn2CC(F)(F)C(C)C` [Compound 185] the same measures were 99.8%, 9.77 nM, 102% and 2.24 nM.
Taken in the same sequence, the figures for `Cc1cc(F)cc(F)c1Nc1nccc2c1ccn2CC(F)(F)C(C)C` [Compound 186] were 85.9%, 24.5 nM, 102% and 4.27 nM.
With `Cc1cc(OC(F)(F)F)cc(C)c1Nc1nccc2c1ccn2CC(F)(F)C(C)C` [Compound 187], in assay [1], the Emax stood at 96.4% and the EC50 is 8.71 nM. In assay [2], the Emax turned out to be 101% and the IC50 was 1.78 nM.
Taken in the same sequence, the figures for `Cc1cc(OC(F)F)nc(C)c1Nc1nccc2c1ccn2CC(F)(F)C(C)C` [Compound 188] were 89.1%, about 4.37 nM, 100% and 1.62 nM.
Taken in the same sequence, the figures for `Cc1cc2cnn(C)c2c(C)c1Nc1nccc2c1ccn2CC(F)(F)C(C)C` [Compound 189] were 101%, 3.16 nM, 100% and 1.05 nM.
Taken in the same sequence, the figures for `Cc1ncnc(C(C)C)c1Nc1nccc2c1ccn2CCC1CC1` [Compound 193] were 89.7%, 112 nM, 102% and 6.31 nM.
On to `Cc1cncc(C(F)(F)F)c1Nc1nccc2c1ccn2CCC1CC1` [Compound 194], for which, in assay [1], the maximal effect (Emax) was 67.9% and the EC50 is 79.4 nM. Moreover, in assay [2], the maximum response (Emax) is 104% and the IC50 was 7.76 nM.
